# Key:
# Format in all cases: in vivo, Cryptotis parva
# NK1 receptor = test: Histological analysis of NK1 receptor immunotoxic lesions with SSP-saporin
# Procedure: (§1) Immunohistochemistry was performed by blocking free-floating sections with 10% normal horse serum (NHS) and 3% hydrogen peroxide in PB with 0.3% Triton X-100 (TX) for 30 min After rinsing three times in PB, tissue was put in either: (1) rat anti-Substance P monoclonal antibody (Chemicon, 1:400); (2) sheep anti-Fos polyclonal (Chemicon, 1:600); or (3) rabbit anti-NK1 receptor polyclonal (Santa Cruz, 1:500), with 5% NHS and 0.3% TX, and incubated overnight at room temperature with gentle shaking. After rinsing three times in PB, the tissue was placed in biotinylated donkey anti-rat, anti-sheep, or anti-rabbit (respectively) IgG secondary antibody (Jackson Immuno, dilution 1:600). The secondary antibody was diluted in the same diluent described for the primary antibody, and the tissue incubated at room temperature with shaking for 75 min. After rinsing three times in PB, tissue was incubated for 60 min in horse radish peroxidase-conjugated avidin-biotin complex (Vector Labs Vectastain kit, diluted 1:2) in PB. Tissue was then rinsed twice in PB, then once in imidazole-acetate buffer (0.1 M, pH7.4), then reacted for 6 min in 0.0006% hydrogen peroxide with 2% nickel ammonium sulfate-enhanced diaminobenzidine (DAB, 0.05% in 0.1 M imidazole-acetate buffer).
# To better localize the induction of emesis by GR73632, dose-response curves were generated for shrews pretreated either with the NK1 receptor immunotoxin SSP-saporin or saline and challenged four days later with varying doses of GR73632 (0, 1, 2.5, or 5 mg/kg, i.p., n=8-10 per group). Briefly, thirty shrews were injected i.p. with 1.2 mg/kg SSP-saporin in sterile saline, and thirty-five shrews were injected with sterile saline alone. In addition, two more shrews were injected with 1.2 mg/kg unconjugated saporin (saporin; ATS) and two more with 1.2 mg/kg of saporin conjugated to a nonspecific peptide sequence (Blank-saporin; ATS). […] Each shrew was monitored for 30 min post-injection and vomiting and scratching behaviors quantified. […]
# Least Shrew = test: Dose response emesis and scratching studies with tachykinin receptor agonists; settings: for increase in emesis frequency vs vehicle control / increase in the frequency of vomiting vs vehicle control: 30 min observation; for onset of first emesis after injection: i.p. agonist injection
# Excerpt: The present protocols were based upon preliminary studies as well as published findings in the Least Shrew. Darmani, 2001a; Darmani et al., 69 Pharmacol. Biochem. Behay. 239-49 (2001b). On the test day, the shrews were allowed to acclimate to the test laboratory for at least one hour prior to experimentation. To habituate the animals to the test environment, each shrew was randomly selected and transferred to a 20 cm×18 cm×21 cm clean clear plastic cage and offered four mealworms (Tenebrio sp.) 30 min prior to experimentation. […]
# (§2) The data on the frequency of emesis and scratchings were analyzed by the Kruskal-Wallis (KW) nonparametric one-way analysis of variance (ANOVA) and post hoc analysis by Dunn's multiple comparisons test or Mann-Whitney test. A P value of <0.05 was necessary to attain statistical significance. The incidence of emesis (number of shrews vomiting) was analyzed by the Fisher's exact test to determine whether there were differences between groups. When appropriate, pairwise comparisons were also made by this method. Two-way analysis of variance using the Kruskal-Wallis or Fisher's exact tests were initially utilized to respectively analyze the dose-response results of GR73632 on emesis and scratching behaviors, and percentage of shrews vomiting in saporin- and corresponding saline-pretreated control shrews. […] For some emesis data, the two-tailed Mann-Whitney test was used. The SP tissue concentration data were analyzed by a one-way ANOVA followed by Dunnett's t test as post hoc analysis. Fos-IR was quantified by counting immunopositive nuclei within each hemisection containing the region of interest (ROI). The number of nuclei was averaged across sections with the ROI for each animal, and the group mean and standard error obtained.
# Fos = test: Fos-IR in brain and enteric nervous system after GR73632; settings: GR73632 2.5 mg/kg i.p.
# Procedure: Shrews were given four mealworms each and GR73632 (2.5 mg/kg, i.p., or vehicle (saline)) injection. For emesis-related Fos visualization, a shrew was transcardially perfused 60 min to 75 min after vomiting occurred, typically 20 min to 35 min post-injection.
# After the appropriate time period as described above, shrews were anesthetized with a lethal dose of pentobarbital ([…]) and perfused transcardially via 25 ga blunted needle connected to a peristaltic pump. The shrew was perfused first with ice cold heparinized saline (0.9% NaC1, 60 sec-90 sec), followed by ice cold 4% paraformaldehyde/5% picric acid in pH7.4, 0.1 M (10 min). Brains were removed and stored in 30% sucrose in 0.1 M phosphate buffer (PB) overnight, then embedded in blocks of 12% gelatin in 30% sucrose/PB. The blocks were postfixed for 3 hr in 2% paraformaldehyde/PB, then rinsed and immersed in 30% sucrose/PB until they sank (usually 1 hr to 2 hr). The brain block was cut on a freezing benchtop microtome (Leica) at 30 μm into five series, and stored in PB with 0.03% sodium azide.
# as §1
# After reacting, the tissue was rinsed thoroughly in PB and mounted onto gel-subbed slides out of PB. After air-drying, slides were dehydrated through a series of ascending ethanols (50%-75%-90%-100%), then cleared in xylene (Fisher). Cleared slides were coverslipped with DEPEX (Electron Microscopy Sciences).
# Photomicrographs of regions of interest were taken at 1600×1200 pixel digital resolution with a SPOT digital camera (Diagnostic Instruments) attached to a Pentium 4 PC running version 4.0 of the SPOT software. The camera was mounted to a Nikon Eclipse E600 microscope. A calibrated scale bar was added and the photos exported to Adobe Photoshop 7, where the Photoshop brush tool was used to mark Fos+nuclei as they were counted. Relevant structures were identified using an atlas produced in lab (Ray & Darmani, 2007). Cell counts for each structure were averaged on a per-section basis and collated in a spreadsheet for statistical analysis.
# The data on the frequency of emesis and scratchings were analyzed by the Kruskal-Wallis (KW) nonparametric one-way analysis of variance (ANOVA) and post hoc analysis by Dunn's multiple comparisons test or Mann-Whitney test. A P value of <0.05 was necessary to attain statistical significance. The incidence of emesis (number of shrews vomiting) was analyzed by the Fisher's exact test to determine whether there were differences between groups. When appropriate, pairwise comparisons were also made by this method. […]
# [1] = tested on: Least Shrew, NK1 receptor-intact or NK1 receptor-ablated; test: GR73632 emesis and scratching after SSP-saporin ablation of peripheral NK1 receptors
# Procedure: To better localize the induction of emesis by GR73632, dose-response curves were generated for shrews pretreated either with the NK1 receptor immunotoxin SSP-saporin or saline and challenged four days later with varying doses of GR73632 (0, 1, 2.5, or 5 mg/kg, i.p., n=8-10 per group). Briefly, thirty shrews were injected i.p. with 1.2 mg/kg SSP-saporin in sterile saline, and thirty-five shrews were injected with sterile saline alone. In addition, two more shrews were injected with 1.2 mg/kg unconjugated saporin (saporin; ATS) and two more with 1.2 mg/kg of saporin conjugated to a nonspecific peptide sequence (Blank-saporin; ATS). Shrews were returned to the animal facility for three days and supplied with unrestricted food and water. Saporin-injected and Blank-saporin-injected shrews were perfused four days post-injection, and brain and gut harvested as described for immunohistochemical staining. The SSP-saporin and saline-injected shrews were divided into different groups on day 4 post-injection, and each group was injected i.p. with varying doses varying doses of 0, 1, 2.5, or 5 mg/kg GR73632 dissolved in saline. Each shrew was monitored for 30 min post-injection and vomiting and scratching behaviors quantified. Three shrews from each group were then perfused 90 min to 120 min post-injection as described previously for Fos immunohistochemistry, and brain and gut harvested. Immunohisto-chemistry (IHC) was performed for SP, NK1 receptor, and Fos as described, to qualitatively examine the extent of immunotoxic lesion in the brain and/or enteric nervous system. IHC for SP and NK1 receptor was done on the saporin- and Blank-saporin-injected shrews to verify the specificity of SSP-saporin and lack of toxicity of unconjugated saporin.
# as §2
# [2] = Analysis of SP in serum, gut and brain tissues following intraperitoneal injection of an emetic dose of SP; settings: SP 50 mg/kg i.p.
# Procedure: Different groups of shrews were injected with a 50 mg/kg emetic dose of SP (i.p.) and were sacrificed at 5 min, 15 min, and 30 min (n=5-6 animals per group) post injection. Blood serum as well as two different brain (frontal cortex and brain stem) and gut (duodenum and jejunum) tissue samples were collected for the determination of SP levels relative to a saline-treated shrew control group (n=6). The brain SP concentration was determined in all of the cited exposure times, whereas gut SP tissue levels were analyzed for the 0 min (control), 5 min and 15 min exposure periods Likewise, serum SP concentrations were determined at the 0 min, 5 min and 15 min exposure periods as well as in a 10 min SP-exposed shrew group.
# To collect blood, shrews were rapidly euthanized with isoflurane (Vedco, St. Joseph, Mo.) one at a time. Then, each shrew was laid on its back and taped to a metal tray, and cut transversely under the diaphragm and along the sides towards the arms to allow the ribcage to be lifted away. The heart was then held with forceps, and a 0.5 cc syringe with 28 ga hypodermic needle was inserted into the left ventricle. Blood was pulled gently into the syringe directly from the ventricle until the descending aorta appeared clear (approximately 50 μl -100 μl total volume), and rapidly transferred to a non-heparinized tube for centrifugation and removal of red blood cells. Brain and gut tissue were rapidly dissected following blood collection and decapitation. Preliminary sample preparation procedures were carried out to optimize detection conditions.
# Because proteases can be deactivated by heat (El-Salhy, 107 Upsala J. Med. Sci. 101-10 (2002)), at basic pH (Crawford & Kalmakoff, 24 J. Virol. 412-15 (1977)), and in the presence of EDTA (Wei & Bobek, 49 Antimicrob. Agents Chemother. 2336-42 (2005)), the entire intestine was immediately immersed in a 70° C. preheated, 5 ml solution of normal saline containing […] EDTA at pH8.0. After a 5 min exposure, each gut was thrice flushed and rinsed with 5 ml of the saline solution and then allowed to cool down naturally to room temperature. Then, each gut was dissected and the duodenum and jejunum samples were placed separately in test tubes containing 1 ml assay buffer. The dissected frontal cortex and brain stem samples were placed in different test tubes containing 0.5 ml assay buffer. Each sample was homogenized using a tissue tearor (Biospec) set at level 5 for 15sec. The homogenates were then centrifuged at 17,000×g for 15 min at 4° C. The supernatants were obtained and saved at −80° C. until used for the EIA detection of SP. Samples were analyzed for SP using the “Correlate-EIA” kit from Assay Designs using a microplate reader.
# as §2
substance,measurement,setting,value
saporin,NK1 receptor-IR and SP-IR vs control shrews,"NK1 receptor; 1.2 mg/kg, four days post-injection",not different
"[Sar^9, Met (O2)“]-SP-saporin [SSP-saporin]",NK1 receptor-IR in the gut vs saline-treated controls,"NK1 receptor; 1.2 mg/kg i.p., four days",clear loss
same,blood brain barrier penetration,"NK1 receptor; peripherally administered, 1.2 mg/kg i.p.",does not penetrate the blood brain barrier
"delta Ava [L-Pro^9, N-MeLeu^10]SP (7-11) [GR73632]",frequency of scratching behavior vs vehicle,Least Shrew; 2.5 mg/kg i.p.,Significant enhancements
same,percentage of shrews vomiting,Least Shrew; 2.5 mg/kg i.p.,87.5%
same,increase in emesis frequency vs vehicle control,Least Shrew; 2.5 mg/kg i.p.,438%
same,frequency of scratching behavior vs vehicle,Least Shrew; 5 mg/kg i.p.,Significant enhancements
same,percentage of shrews vomiting,Least Shrew; 5 mg/kg i.p.,100%
same,increase in emesis frequency vs vehicle control,Least Shrew; 5 mg/kg i.p.,575%
same,onset of first emesis after injection,Least Shrew,3 to 4 min
same,Fos-IR in gastrointestinal enteric nervous system vs saline,Fos,significant differences
same,shrews in which vomiting was induced,Fos; N=6,five of six
same,"Fos-IR nuclei per coronal hemisection, AP",Fos; mean ± standard error,2.4 ± 1.2
same,"Fos-IR nuclei per coronal hemisection, DMNX",Fos; mean ± standard error,3.3 ± 1.0
same,"Fos-IR nuclei per coronal hemisection, NTS",Fos; mean ± standard error,8.2 ± 1.1
same,"Fos-IR nuclei per coronal hemisection, PFC",Fos; mean ± standard error,58.4 ± 14.2
same,percentage of shrews vomiting,"[1]; GR73632 1 mg/kg, NK1 receptor-intact (saline-pretreated) shrews",44%
same,number of vomits,"[1]; GR73632 1 mg/kg, normal shrews",about two vomits
same,percentage of shrews vomiting,"[1]; GR73632 1 mg/kg, saporin-pretreated NK1 receptor-ablated shrews",0%
same,percentage of shrews vomiting,"[1]; GR73632 2.5 mg/kg, NK1 receptor-ablated shrews",28%
same,percentage of shrews vomiting,"[1]; GR73632 2.5 mg/kg, NK1 receptor-intact shrews",62.5%
same,"bouts of vomiting, ablated vs intact shrews","[1]; GR73632 5 mg/kg, NK1 ablated shrews",significantly less bouts of vomiting
same,percentage of shrews vomiting,"[1]; GR73632 5 mg/kg, NK1 receptor-ablated shrews",100%
same,percentage of shrews vomiting,"[1]; GR73632 5 mg/kg, NK1 receptor-intact shrews",100%
same,number of scratches,"[1]; GR73632 1, 2.5, 5 mg/kg, NK1 receptor-ablated shrews",increased in a significant manner at all tested doses
same,duration of expulsion of food/liquid,[1]; NK1 receptor-ablated shrews,15 to 30 s
same,duration of emesis (each vomit expulsion),[1]; NK1 receptor-intact animals,2 to 4 s
"SP: tachykinin undecapeptide, nonselective NK1 receptor agonist, purchased from Sigma/RBI",emetic activity,Least Shrew; 10 mg/kg i.p.,inactive
same,emetic activity,Least Shrew; 25 mg/kg i.p.,inactive
same,percentage of shrews vomiting,Least Shrew; 50 mg/kg i.p.,82%
same,increase in the frequency of vomiting vs vehicle control,Least Shrew; 50 mg/kg i.p.,382%
same,percentage of shrews vomiting,Least Shrew; 100 mg/kg i.p.,78%
same,increase in the frequency of vomiting vs vehicle control,Least Shrew; 100 mg/kg i.p.,322%
same,other overt behavioral effect (e.g. scratching),"Least Shrew; at the doses tested, 10-100 mg/kg i.p.",no other overt behavioral effect
same,onset of first emesis after injection,Least Shrew,1 to 2 min
same,time for brain stem SP-tissue level to attain maximal levels,[2],15 min
same,decrease of basal frontal cortex SP concentration,[2]; 5 min,34%
same,increase of basal SP blood serum level,[2]; 5 min post-injection,3488 fold
same,increase of brain stem SP over basal level,[2]; 5 min post-injection,156%
same,decrease of basal frontal cortex SP concentration,[2]; 15 min,68%
same,increase of brain stem SP over basal level,[2]; 15 min post-injection,287%
same,brain stem SP level,[2]; 30 min,returned to basal tissue level
same,decrease of basal frontal cortex SP concentration,[2]; 30 min,89%
same,SP blood serum level,[2]; by 10 min,rapidly declined
same,duodenal SP tissue level increase over basal levels,[2]; within 5 min,1883%
same,jejunal SP tissue level increase over basal level,[2]; within 5 min,2133%

# Reference: US20110093959A1, “CRYPTOTIS PARVA SCREENING MODEL FOR ANTIEMETIC POTENTIAL” (priority 2008, published 2011)
